Key:
[1] = test system: new blood vessel formation in BALB/c nude mice; test: Directed in vivo angiogenesis assay (DIVAA) in nude mice; design: species or system mouse; conditions: angioreactors with Afs (bFGF, VEGF, heparin), peptide (1 mg/ml) with atelocollagen, s.c. implant, 15 days, n = 3; NBD P < 0.01
MSS31 cells [2] = test: Capillary formation (tube formation) on Matrigel; format: cell-based, mouse
[3] = test system: S100A4-MetAP2 interaction; test: In vitro GST pull-down binding assay S100A4-MetAP2; conditions: [35S]MetAP2, GST/S100A4, 1 mmol/l CaCl2; peptide at 25-fold molar excess of MetAP2
MSS31 cells [4] = test: MSS31 cell growth; format: cell-based, mouse; conditions: atelocollagen complex; relative to control cells set to 100%; n = 4, P < 0.01
Description: Figure 8 Inhibition of cell cycle progression and cell growth by the NBD peptide. MSS31 cells were treated with atelocollagen alone or the NBD or the CBD peptide/atelocollagen complex in vitro. (a) Cell cycle progression. The cells were labeled with BrdU and then subjected to flow cytometry. (b) Cell growth. The values represent cell growth rate relative to that of control cells that is set to 100%. The NBD peptide inhibited the growth of MSS31 cells compared to the control cells (atelocollagen alone). Data represent the mean ± SD (n = 4), P < 0.01. TEXT PRINTED IN THE PICTURE: (a) NBD: S:13.2%; G1:70.7%; G2/M:9.6% | (a) CBD: S:32.1%; G1:55.4%; G2/M:8.9% | (a) peptide(−): S:36.7%; G1:49.6%; G2/M:9.7%

PC-3M-Luc tumors = test: Tumor growth by bioluminescence imaging of PC-3M-Luc xenografts; format: in vivo, human tumor in athymic nude mice
Description: Figure 5 Inhibition of tumor angiogenesis and tumor growth of human prostate cancer cells by the NBD peptide. The peptide/atelocollagen was injected into the subcutaneous tumors on day 3 after inoculation of PC-3M-Luc cells. Atelocollagen alone was injected as controls. (a) Microvessel density. Anti-CD31-antibody staining was used to detect angiogenesis. Arrows show microvessels. The images were digitally processed for assessment of angiogenesis. (b) Inhibition of tumor growth by peptide delivery in vivo. Representative bioluminescent images of nude are shown. L, tumors treated with the CBD peptide; R, tumors treated with the NBD peptide. (c) The photon count of the bioluminescence is shown. […]
Animal experiments were performed in compliance with the guidelines of the Institute for Laboratory Animal Research at the National Cancer Center Research Institute. […] Ten minutes later, photons from animal whole bodies were counted using the IVIS imaging system (Caliper Life Sciences) according to the manufacturer’s instructions. Data were analyzed by living image 2.50 software (Caliper Life Sciences).
The peptide/atelocollagen complex was prepared by mixing equal volumes of atelocollagen (0.1% in PBS at pH 7.4) and peptide solution (1 mg/ml) with rotation for 30 minutes at 4 °C. […] Mice were monitored by bioluminescent imaging 14 days after the injection of the peptide/atelocollagen complex. […]

NMIIA in MSS31 cells = test: NMIIA filament assembly and S100A4-NMIIA colocalization by immunofluorescence; format: cell-based, mouse; conditions: atelocollagen complex, 5 μg/well, 18 hours
Description: Figure 6 Stimulation of NMIIA phosphorylation and filament assembly by the NBD peptide. MSS31 cells incubated with atelocollagen alone or the peptide/atelocollagen complexes were subjected to western blot analysis and immunofluorescent staining. (a) Western blot analysis of NMIIA phosphorylation. Total cellular proteins were subjected to immunoblot analysis. The band intensity of p-NMIIA relative to that of total NMIIA was measured using ImageJ software and normalized to control cells. (b) NMIIA assembly. MSS31 cells were simultaneously incubated with rabbit polyclonal anti-S100A4 antibody and mouse monoclonal anti-NMIIA antibody followed by Alexa Fluor 488-conjugated goat antirabbit IgG and Alexa Fluor 594-conjugated goat antimouse IgG. Nuclei were stained with DAPI. Scale bars: 50 μm. (c) Blockade of S100A4-NMIIA interaction by the NBD peptide. MSS31 cells were immunostained as in a. White arrows and yellow arrows indicate colocalized areas and independently localized areas of S100A4 and NMIIA, respectively. Bars: 20 μm. TEXT PRINTED IN THE PICTURE: (a) NBD: p-NMIIA/total NMIIA: 1.78 | (a) CBD: p-NMIIA/total NMIIA: 0.66
MSS31 cells cultured in six-well plates were incubated with 5 μg/well of the NBD or the CBD peptide/atelocollagen complex or atelocollagen alone for 18 hours in Culture Slides (4 wells, BD Falcon) and were washed three times with DPBS and fixed for 10 minutes at 4 °C with 4% formaldehyde in DPBS. After permeabilizing with 0.5% Triton X-100 in DPBS for 4 minutes, the cells were treated with 3% bovine serum albumin in DPBS containing 0.1% glycine for 1 hour to block nonspecific binding sites. After washing with DPBS, the cells were incubated for 1 hour with primary antibodies, rinsed, and then stained with secondary antibodies. The primary antibodies used were polyclonal anti-S100A4, monoclonal anti-NMIIA antibody, monoclonal antivinculin antibody and polyclonal anti-integrin β1 antibody. The secondary antibody was Alexa Fluor 488-conjugated goat antirabbit IgG (Invitrogen) or Alexa Fluor 594-conjugated goat antimouse IgG (Invitrogen). […]

NBD: N-terminal 39 amino acid sequence of SBD, from Arg170 to Ileu208; corresponding to MetAP2 (170–208) (REAAEAHRQVRKYVMSWIKPGMTMIEICEKLEDCSRKLI)
in vivo angiogenesis (DIVAA) [1]: potently suppressed the angiogenic factors-induced angiogenesis | time at which inhibition of capillary formation is apparent (MSS31 cells [2]; after peptide loading, Supplementary Figure S4): ≤ 6 h | tube (capillary) formation (MSS31 cells [2]; atelocollagen complex, 5 μg/well, Matrigel with 50 ng/ml HGF, 16 hours, n = 6, *P < 0.01): severely impaired tube formation | inhibition of S100A4-MetAP2 interaction (GST pull-down) [3]: inhibited the binding as efficiently as SBD | growth of MSS31 cells (MSS31 cells [4]): significantly inhibited the growth of MSS31 cells | vascularity and tumor regression (PC-3M-Luc tumors; single intra-tumor administration, human prostate cancer xenografts (abstract)): significantly reduced vascularity, resulting in tumor regression | tumor growth (PC-3M-Luc tumors; single intratumoral injection of 100 μg peptide in atelocollagen, bioluminescence on day 14, vs atelocollagen alone and CBD, n = 7, P < 0.05): significant inhibition of the growth of tumors | NMIIA filament assembly (NMIIA in MSS31 cells): stimulated filament assembly in MSS31 cells | colocalization of S100A4 and NMIIA (NMIIA in MSS31 cells): the majority of S100A4 was not colocalized with NMIIA filaments | distribution of NMIIA filaments (NMIIA in MSS31 cells): evenly distributed throughout the cells and showed no polarization

Reference: paper PMC4445002, “Efficient inhibition of tumor angiogenesis and growth by a synthetic peptide blocking S100A4-methionine aminopeptidase 2 interaction” (Molecular Therapy. Methods & Clinical Development, 2015)
